Patent US20240226228A1, “ANTIMICROBIAL PEPTOID HAVING IMPROVED SELECTIVITY AND ANTIMICROBIAL COMPOSITION COMPRISING SAME” (priority 2021, published 2024)
≈ marks a conversion by molar mass, not a printed value. Like-named read-outs stand apart in the source and are kept apart here. Where a SMILES comes first, the peptide text is derived from it. [ ]: non-standard residue; d: D form. Gly(N(CH2)2(3-indolyl)) = O=C(O)CNCCc1c[nH]c2ccccc12; Nspe = C[C@H](NCC(=O)O)c1ccccc1; Nlys = NCCCCNCC(=O)O

Key:
[1] = system: Human lung cells (MRC-5); test: in vitro
Experimental: (§1) Human lung cells (MRC-5) were purchased from the Korean Cell Line Bank, and human keratinocytes (HaCaT) were purchased from the AmorePacific R&D Center. All cells were grown in a Dulbecco's modified Eagle's medium containing 10% fetal bovine serum under conditions of 5% CO2 and 37° C. To confirm the effect of a peptoid on cell growth, 3-(4,5-dimethylthiazol-2-yl)-5-(3-carboxymethoxyphenyl)-2-(4-sulfophenyl)-2H-tetrazolium (MTS) cell assay was performed to determine cell viability. An aliquot (100 μL) of a batch including 1.3×10^4 MRC-5 cells/mL or 3×10^4 HaCaT cells/mL was dispensed into each well of a 96-well plate. The cells were grown at 37° C. in a 5% CO2 humid atmosphere and allowed to adhere for 24 hours. When the cells reached approximately 70% confluency, the medium was replaced with serial dilutions of the peptoid stock and incubated for 24 hours. 20 μL of a CellTiter 96 aqueous non-radioactive cell proliferation assay reagent (Promega, USA) including a tetrazolium compound was added to each well.
(§2) The contents in the plate were metabolized by incubating at 37° C. for 4 hours. An MTS-formazan product of viable cells was measured at 490 nm using a microplate reader, and cell viability (%) was calculated by Equation 2 below and compared with untreated cells.
(§3) Cell viability (%)=[A/(Acontrol)]×100 [Equation 2]
(§4) In Equation 2, A is the absorbance of a test well, and Acontrol is the average absorbance of a well containing untreated cells.
(§5) The term “nd” shown in Table 19 below is the abbreviation for not determined, and indicates a value that is too small or too large to be measured.

[2] = system: human keratinocytes (HaCaT); test: in vitro
Experimental: as §1, §2, §3, §4, §5

[3] = in vitro
Experimental: as §1, §2, §3, §4, §5

[4] = system: E. coli ATCC25922
How it was run: (§6)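 Cation-adjusted MHB2 cultures (18 h, subcultured 4 h) adjusted to 2×10^5–5×10^5 CFU/mL in medium with 0.02% BSA and 0.001% acetic acid.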

[5] = system: S. aureus ATCC 25923
How it was run: as §6

[6] = HPLC to confirm peptoid decomposition after counter ion substitution; format: physicochemical; conditions: HPLC at 220 nm; HCl and AcOH
Experimental: FIGS. 76 to 83 are the HPLC results for Peptoids 1, 10, 11, 14, 15, 29, 32 and 37 of the present inventive concept to confirm the decomposition of the peptoids after counter ion substitution using (a) HCl and (b) AcOH.
Referring to FIGS. […], HPLC was performed for Peptoids 1, 10, 11, 14, 15, 29, 32 and 37 of the present inventive concept. Since the chloride (HCl) is a stronger acid than TFA, it can decompose acid-vulnerable peptoid compounds.

[7] = system: Enterobacter SP KCTC 2625; test: MIC in multidrug-resistant bacteria, modified microdilution method; format: cell-based; conditions: Table 14
Experimental: (§7) The MIC of the prepared peptoid in multidrug-resistant bacteria was measured using a modified microdilution method in a Difco Mueller Hinton medium, and a test was performed on a bacterial pathogen panel with resistant and tolerance to general antibiotics.
(§8) Briefly, a medium containing bovine serum albumin and 0.001% acetic acid was used to continuously dilute a peptoid concentrate 10-times stronger than the final concentration. 10 uμL of the 10-time stronger peptoid concentrate and 90 μL of a Muleller Hinton medium were added to each well of a 96-well plate. Bacteria were added to the plate until the final concentration reached 2×10^5 CFU/mL and then incubated at […] overnight. MIC was defined as a concentration at which bacterial growth is not observed.

[8] = system: E. coli KCTC 2411; test: as above; format: cell-based; conditions: Table 14
Experimental: as §7, §8

[9] = system: Enterococcus Faecium KCTC 13225; test: as above; format: cell-based; conditions: Table 14
Experimental: as §7, §8

[10] = system: Enterococcus faecalis KCTC 3511; test: as above; format: cell-based; conditions: Table 14
Experimental: as §7, §8

[11] = system: P. aeruginosa KCTC 1637; test: as above; format: cell-based; conditions: Table 14
Experimental: as §7, §8

[12] = system: red blood cells; test: Hemolysis assay; format: cell-based, Sprague-Dawley mouse
How it was run: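 Peptoid is mixed with 10% (v/v) PBS-washed erythrocytes (male Sprague-Dawley […], 13 weeks) and held 1 h at 37 °C. Hemolysis is calculated from 540 nm absorbance of the supernatant, with PBS as 0% and Triton X-100 as 100%.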

[13] = Table 18, TFA salt vs counter ion-substituted (HCl, AcOH) peptoids
[14] = Tables 11-13, 24 hours at 37° C., maximum concentration 25 μM
[15] = Tables 11-13, concentration that induces hemolysis in 10% red blood cells
[16] = Tables 11-13, concentration that induces hemolysis in 50% red blood cells
[17] = Table 18, TFA salt vs counter ion-substituted peptoids

Compound | lower toxicity against MRC-5 cells compared to the peptoid having a TFA salt [1] [%] | lower toxicity against HaCaT cells compared to the peptoid having a TFA salt [2] [%] | CC50 at 24 h ([3]; human, LC50 HaCaT) [µM] | CC50 at 24 h ([3]; human, LC50 MRC-5) [µM] | MIC E. coli ATCC25922 [4, 13] [µM] | MIC E. coli ATCC25922 [4, 14] [µM] | MIC S. aureus ATCC 25923 [5, 14] [µM] | peptoid decomposition after counter ion substitution (in words) [6] | MIC Enterobacter SP KCTC 2625 [7] [µM] | MIC E. coli KCTC 2411 [8] [µM] | MIC Enterococcus Faecium KCTC 13225 [9] [µM] | MIC Enterococcus faecalis KCTC 3511 [10] [µM] | MIC P. aeruginosa KCTC 1637 [11] [µM] | MIC S. aureus ATCC 25923 [5, 13] [µM] | HC10 [12, 15] [µM] | HC50 [12, 16] [µM] | other results
C[C@@H](c1ccccc1)N(CC(N)=O)C(=O)CN(CCCCN)C(=O)CN(CCCCN)C(=O)CN(C(=O)CN(C(=O)CN(CCCCN)C(=O)CN(C(=O)CN(C(=O)CN(CCCCN)C(=O)CN(CCc1c[nH]c2ccccc12)C(=O)CN(CCc1c[nH]c2ccccc12)C(=O)CNCCCCN)[C@@H](C)c1ccccc1)[C@@H](C)c1ccccc1)[C@@H](C)c1ccccc1)[C@@H](C)c1ccccc1 [Peptoid 32, H-NLys-NhTrp-NhTrp-NLys-Nspe-Nspe-NLys-Nspe-Nspe-NLys-NLys-Nspe-NH2] | 20 | 20 | 17.1 | 14.5 | 6.3 | 6.3 (≈ 11.7 µg/mL) | 3.1 (≈ 5.78 µg/mL) | almost no peptoid decomposition occurred | 3.1 (≈ 5.78 µg/mL) | 6.3 (≈ 11.7 µg/mL) | 3.1 (≈ 5.78 µg/mL) | 6.3 (≈ 11.7 µg/mL) | 25 (≈ 46.6 µg/mL) |  |  |  | MIC S. aureus ATCC 25923 ([5]; ATCC 25923): 3.1 µM (≈ 5.78 µg/mL)
C[C@@H](c1ccccc1)N(CC(=O)N(CCCCN)CC(=O)N(CCc1c[nH]c2ccccc12)CC(=O)N(CCc1c[nH]c2ccccc12)CC(N)=O)C(=O)CN(CCCCN)C(=O)CN(CCCCN)C(=O)CN(C(=O)CN(C(=O)CN(CCCCN)C(=O)CN(C(=O)CN(C(=O)CNCCCCN)[C@@H](C)c1ccccc1)[C@@H](C)c1ccccc1)[C@@H](C)c1ccccc1)[C@@H](C)c1ccccc1 [Peptoid 29, H-NLys-Nspe-Nspe-NLys-Nspe-Nspe-NLys-NLys-Nspe-NLys-NhTrp-NhTrp-NH2] (H-[Nlys][Nspe][Nspe][Nlys][Nspe][Nspe][Nlys][Nlys][Nspe][Nlys][Gly(N(CH2)2(3-indolyl))][Gly(N(CH2)2(3-indolyl))]-NH2) | 20 | 20 | 18.8 |  | 6.3 | 6.3 (≈ 11.7 µg/mL) | 6.3 (≈ 11.7 µg/mL) | almost no peptoid decomposition occurred | 3.1 (≈ 5.78 µg/mL) | 6.3 (≈ 11.7 µg/mL) | 1.6 (≈ 2.98 µg/mL) | 3.1 (≈ 5.78 µg/mL) | 50 (≈ 93.2 µg/mL) | 12.5 |  |  | 
C[C@@H](c1ccccc1)N(CC(N)=O)C(=O)CN(C(=O)CN(CCCCN)C(=O)CN(C(=O)CN(C(=O)CN(CCCCN)C(=O)CN(C(=O)CN(C(=O)CN(CCCCN)C(=O)CN(CCc1c[nH]c2ccccc12)C(=O)CN(CCc1c[nH]c2ccccc12)C(=O)CNCCCCN)[C@@H](C)c1ccccc1)[C@@H](C)c1ccccc1)[C@@H](C)c1ccccc1)[C@@H](C)c1ccccc1)[C@@H](C)c1ccccc1 [Peptoid 14, H-NLys-NhTrp-NhTrp-NLys-Nspe-Nspe-NLys-Nspe-Nspe-NLys-Nspe-Nspe-NH2] |  |  |  | 9.7 | 3.1 | 3.1 (≈ 5.88 µg/mL) | <0.8 | almost no peptoid decomposition occurred | 3.1 (≈ 5.88 µg/mL) | 6.3 (≈ 12 µg/mL) | < 0.8 | 1.6 (≈ 3.04 µg/mL) |  | 1.6 | 23.6 | 43.4 | HC10 [12]: 12.5 µM; HC50 [12]: 21.1 µM
C[C@@H](c1ccccc1)N(CC(=O)N(CCCCN)CC(=O)N(CC(=O)N(CC(=O)N(CCCCN)CC(=O)N(CC(=O)N(CC(=O)N(CCCCN)CC(=O)N(CCc1c[nH]c2ccccc12)CC(=O)N(CCc1c[nH]c2ccccc12)CC(N)=O)[C@@H](C)c1ccccc1)[C@@H](C)c1ccccc1)[C@@H](C)c1ccccc1)[C@@H](C)c1ccccc1)C(=O)CN(C(=O)CNCCCCN)[C@@H](C)c1ccccc1 [Peptoid 11, H-NLys-Nspe-Nspe-NLys-Nspe-Nspe-NLys-Nspe-Nspe-NLys-NhTrp-NhTrp-NH2] (H-[Nlys][Nspe][Nspe][Nlys][Nspe][Nspe][Nlys][Nspe][Nspe][Nlys][Gly(N(CH2)2(3-indolyl))][Gly(N(CH2)2(3-indolyl))]-NH2) |  |  |  | 6.9 | 3.1 | 6.3 (≈ 12 µg/mL) | 1.6 (≈ 3.04 µg/mL) | almost no peptoid decomposition occurred | 6.3 (≈ 12 µg/mL) | 12.5 (≈ 23.7 µg/mL) | < 0.8 | < 0.8 |  | 1.6 |  |  | 
C[C@@H](c1ccccc1)N(CC(N)=O)C(=O)CN(C(=O)CN(CCCCN)C(=O)CN(C(=O)CN(C(=O)CN(CCCCN)C(=O)CN(C(=O)CN(C(=O)CN(CCCCN)C(=O)CN(C(=O)CN(C(=O)CNCCCCN)[C@@H](C)c1ccccc1)[C@@H](C)c1ccccc1)[C@@H](C)c1ccccc1)[C@@H](C)c1ccccc1)[C@@H](C)c1ccccc1)[C@@H](C)c1ccccc1)[C@@H](C)c1ccccc1 [Peptoid 1, H-NLys-Nspe-Nspe-NLys-Nspe-Nspe-NLys-Nspe-Nspe-NLys-Nspe-Nspe-NH2, reference compound] (H-[Nlys][Nspe][Nspe][Nlys][Nspe][Nspe][Nlys][Nspe][Nspe][Nlys][Nspe][Nspe]-NH2) |  |  |  |  | 6.3 | 6.3 (≈ 11.5 µg/mL) | 1.6 (≈ 2.91 µg/mL) | almost no peptoid decomposition occurred | 6.3 (≈ 11.5 µg/mL) | 6.3 (≈ 11.5 µg/mL) | < 0.8 | 0.8 (≈ 1.46 µg/mL) | 25 (≈ 45.5 µg/mL) | 1.6 | 8.3 | 22.9 | CC50 at 24 h [3]: 7.3 µM; CC50 at 24 h ([3]; LC50 MRC-5, 24 hours incubation, concentration that causes 50% cell lethality): 8.1 µM; MIC E. coli ATCC25922 ([4]; gram-negative bacteria, E. coli ATCC25922 strain): 3.1 µM (≈ 5.64 µg/mL); MIC S. aureus ATCC 25923 ([5]; gram-positive bacteria, S. aureus ATCC25923 strain): 1.6 µM (≈ 2.91 µg/mL); HC10 [12, 17]: 15.9 µM; HC50 [12, 17]: 49.0 µM; Hmax (100 μM) [12, 17]: 72.1 ± 2.1%; Hmax (100 μM) ([12]; Tables 11-13, hemolysis rate at maximum peptoid concentration): 112.3 ± 0.7%; HD10 ([12]; first value of HD10/HD50 cell, hemolysis, in µM): 22.9; Hmax (100 μM) ([12]; hemolysis at 100 μM): 75.8; HD50 ([12]; second value of HD10/HD50 cell, hemolysis, in µM): 79.0
